Assay [1] relates to BE-13 (T-Lymphoblastic Leukemia). Briefly: Bliss excess, mean over the matrix (fraction); higher = more synergy. In short, it runs like this: (§1)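 Cell lines in DMEM/F12 or RPMI with 10% FBS were plated in 1536-well plates, held 24 hours at 37°C, 5% CO2, then given two-drug dose matrices for 72 hours (DMSO typically 0.2%). Viability was read by CellTiter-Glo 2.0 luminescence and scaled as inhibition from 0 (vehicle wells) to 1 (blank wells). Combination Emax is the second-highest inhibition in the matrix; Bliss excess is observed combination effect minus expected EA + EB − EA·EB, EA and EB being single-agent effects.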

The test system of assay [2] is CAL-33 (Oral Cavity Carcinoma). Described as above. In short, it runs like this:
as §1

The test system of a further assay is CAL-72 (Osteosarcoma). Described as above. In short, it runs like this: as §1
The test system of assay [3] is Detroit562 (Head and Neck Carcinoma). The assay is described as above. In short, it runs like this: as §1
In assay [4] the test system is FTC-133 (Thyroid Gland Carcinoma). The description is as above. A digest of the protocol:
as §1

In assay [5] the test system is HH (T-Cell Non-Hodgkin's Lymphoma). The description is as above. In short, it runs like this: as §1
Assay [6] concerns HeLa (Cervical Carcinoma). The assay is described as above. In short, it runs like this: as §1
Assay [7] deals with KMRC-20 (Kidney Carcinoma). Described as above. In short, it runs like this:
as §1

In assay [8] the test system is KYAE-1 (Esophageal Adenocarcinoma). Described as above. In short, it runs like this:
as §1

Assay [9] deals with LNZTA3WT4 (Low Grade Glioma). The description is as above. A digest of the protocol: as §1
The subject of assay [10] is LS-123 (Colorectal Carcinoma). The assay is described as above. A digest of the protocol: as §1
The subject of assay [11] is NCI-H524 (Small Cell Lung Carcinoma). The description is as above. A digest of the protocol: as §1
Assay [12] concerns OV-56 (Ovarian Carcinoma). The description is as above. A digest of the protocol:
as §1

Assay [13] relates to SAS (Oral Cavity Carcinoma). The description is as above. In short, it runs like this: as §1
The subject of assay [14] is SNU-16 (Gastric Carcinoma). The description is as above. In short, it runs like this:
as §1

Assay [15] has as its system YAPC (Pancreatic Carcinoma). The description is as above. A digest of the protocol:
as §1

Assay [16] has as its system ALL-PO (B-Lymphoblastic Leukemia). Briefly: combination Emax (second highest fraction inhibited in the dose matrix, 72 h); higher = more inhibition; extreme values may be limits of the assay. A digest of the protocol:
as §1

The test system of assay [17] is ESS-1 (Other Solid Carcinomas). The description is as above. A digest of the protocol:
as §1

For assay [18], the system named is HH (T-Cell Non-Hodgkin's Lymphoma). The assay is described as above. In short, it runs like this:
as §1

Assay [19] deals with OVCAR-5 (Ovarian Carcinoma). Described as above. In short, it runs like this:
as §1
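For Bliss excess, mean over the matrix in this document: after 72 h of two-drug dosing.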

Consider `COc1cc2ncnc(Nc3ccc(F)c(Cl)c3)c2cc1OCCCN1CCOCC1` [Gefitinib] + CC(C)n1c(=O)n(C)c2cnc3cc(F)c(-c4ccc(OCCCN5CCCCC5)nc4)cc3c21 [AZD1390] (first compound max 10 µM, 7x7, partner max 0.3 µM), for which the Bliss excess is -0.0956 in assay [1]; -0.0366 in assay [2]; -0.0555 in the assay on CAL-72 (Osteosarcoma); -0.0476 in [3]; -0.0752 in assay [4]; -0.0263 in assay [5]. The Bliss excess in assay [6] was -0.0578; in [7], -0.056; in [8], -0.0421; in assay [9] it was -0.0393; in assay [10] it was -0.0622; in assay [11], -0.0431. The Bliss excess is -0.0543 in [12], -0.0454 in assay [13], -0.0183 in [14] and -0.0233 in assay [15]. Moreover, the “combination Emax” value in [16] was determined as 0.59; in [17] it was 0.153; in assay [18] it was 0.221; in assay [19] it was 0.203.
`COc1cc2c(cc1OCCCCCOc1cc3c(cc1OC)C(=O)N1C=C(C)C[C@H]1C=N3)N=C[C@@H]1CC(C)=CN1C2=O` [SG3199] + O=C(c1cc(Cc2n[nH]c(=O)c3ccccc23)ccc1F)N1CCN(C(=O)C2CC2)CC1 [Olaparib] (first compound max 0.001 µM, 7x7, partner max 10 µM): the Bliss excess in assay [1] was -0.0469; in assay [2] it was -0.0198; with CAL-72 (Osteosarcoma) it was -0.0565; in [3], -0.0252; in assay [4], -0.013; in assay [5] it was -0.0344. In addition, the Bliss excess in assay [6] is -0.0301; in [7], -0.0192; in [8] it was -0.0195; in [9], -0.0444; in assay [10], -0.0211; in assay [11], -0.0181. The Bliss excess in assay [12] was -0.0297; in assay [13] it was -0.03; in assay [14], -0.0598; in assay [15], -0.0534. For the same compound, the “combination Emax” value in [16] stood at 0.646; in assay [17], 0.346; in [18] it was 0; in assay [19], 0.0819.
Regarding `C[C@@H](c1ccc2nccn2c1)n1nnc2ncc(-c3cnn(C)c3)nc21` [Savolitinib] + CC1(C)CCC(CN2CCN(c3ccc(C(=O)NS(=O)(=O)c4ccc(NCC5CCOCC5)c([N+](=O)[O-])c4)c(Oc4cnc5[nH]ccc5c4)c3)CC2)=C(c2ccc(Cl)cc2)C1 [Venetoclax] (first compound max 1 µM, 7x7, partner max 1 µM), the Bliss excess was -0.0307 in assay [1]; -0.0211 in [2]; -0.02 with CAL-72 (Osteosarcoma); -0.0322 in [3]; -0.0611 in assay [4]; -0.0712 in [5]. Also, the Bliss excess is -0.0374 in [6]; -0.0524 in [7]; -0.014 in assay [8]; -0.0907 in assay [9]; -0.0794 in assay [10]; -0.0066 in assay [11]. Further, the Bliss excess is -0.0419 in [12], -0.0388 in assay [13], -0.0188 in assay [14] and -0.0232 in assay [15]. Also, the “combination Emax” value in assay [16] was found to be 0.337; in [17] it was 0.136; in assay [18], 0.134; in [19] it was 0.0951.
Take `C[C@@H](c1ccc2nccn2c1)n1nnc2ncc(-c3cnn(C)c3)nc21` [Savolitinib] + Cc1c2c(nn1C)CSCc1cc(n(C)n1)CSc1cc(c3ccccc3c1)OCCCc1c(C(=O)O)n(C)c3c-2c(Cl)ccc13 [AZD5991] (first compound max 1 µM, 7x7, partner max 1 µM): the Bliss excess in assay [1] is 0.065; in [2], -0.0423; in the assay on CAL-72 (Osteosarcoma), -0.0077; in [3], 0.0497; in assay [4] it was -0.0511; in assay [5] it was -0.0258. Moreover, the Bliss excess in assay [6] is -0.0696; in assay [7], -0.0733; in [8], 0.0163; in assay [9] it was -0.0247; in [10] it was -0.0234; in assay [11] it was -0.0115. Further, the Bliss excess in assay [12] is -0.0547; in assay [13], -0.0341; in assay [14], -0.047; in assay [15], -0.0425. The “combination Emax” value in assay [16] stood at 1; in assay [17], 0.16; in assay [18] it was 0.879; in assay [19] it was 0.137.

The record behind these values is the supplement of paper PMC11061612.
